Reference: paper PMC2709817 (Biochemistry, 2009)
Like-named read-outs stand apart in the source and are kept apart here.

Tests used:
Type in all cases: biochemical
LpxC [1] = target: T1, LpxC (Helicobacter pylori, UniProt O25692); test: percent inhibition of purified LpxC ortholog at […]; conditions: read-out: 1-68A
T1 sequence (O25692 1-295): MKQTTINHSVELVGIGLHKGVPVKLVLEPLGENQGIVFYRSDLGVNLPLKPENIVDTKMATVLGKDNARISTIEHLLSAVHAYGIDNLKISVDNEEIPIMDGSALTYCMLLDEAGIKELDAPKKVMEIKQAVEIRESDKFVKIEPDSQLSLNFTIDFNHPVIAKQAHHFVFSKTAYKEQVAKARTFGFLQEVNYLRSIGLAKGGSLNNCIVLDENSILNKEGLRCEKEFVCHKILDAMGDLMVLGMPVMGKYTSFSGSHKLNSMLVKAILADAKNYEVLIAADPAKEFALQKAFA

[2] = target: T2, UDP-3-O-(R-3-hydroxyacyl)-N-acetylglucosamine deacetylase LpxC (Escherichia coli, UniProt P0A725); test: percent inhibition of purified LpxC at […]; conditions: read-out: 1-68Aa
T2 sequence (P0A725 1-305): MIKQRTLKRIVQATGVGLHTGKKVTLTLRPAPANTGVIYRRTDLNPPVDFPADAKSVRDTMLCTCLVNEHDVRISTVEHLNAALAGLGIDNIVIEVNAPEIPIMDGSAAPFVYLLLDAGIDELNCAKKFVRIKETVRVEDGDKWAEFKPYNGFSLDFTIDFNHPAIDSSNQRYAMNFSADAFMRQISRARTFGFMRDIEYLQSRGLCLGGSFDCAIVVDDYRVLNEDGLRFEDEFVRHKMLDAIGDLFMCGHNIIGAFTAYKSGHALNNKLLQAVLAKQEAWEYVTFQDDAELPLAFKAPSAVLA

LpxC [3] = target: T3, LpxC (Rhizobium johnstonii, UniProt Q1ME43); test: percent inhibition of purified LpxC ortholog at […]; conditions: read-out: 1-68Aa
T3 sequence (Q1ME43 1-318): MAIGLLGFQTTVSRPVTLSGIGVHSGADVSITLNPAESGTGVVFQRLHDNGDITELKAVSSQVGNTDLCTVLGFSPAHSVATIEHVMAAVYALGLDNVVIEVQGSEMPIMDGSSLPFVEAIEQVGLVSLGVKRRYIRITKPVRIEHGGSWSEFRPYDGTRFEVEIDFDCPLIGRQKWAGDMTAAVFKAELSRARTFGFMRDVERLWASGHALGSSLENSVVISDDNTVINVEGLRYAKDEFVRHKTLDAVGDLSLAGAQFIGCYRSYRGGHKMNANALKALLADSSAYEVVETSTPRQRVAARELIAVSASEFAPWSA

LpxC [4] = target: T1, LpxC; test: percent inhibition of purified LpxC ortholog at […]; conditions: read-out: 1-68Aa

Row | SMILES | inhibition at 50 µM (LpxC [1]) [%] | inhibition at 50 µM [2] [%] | inhibition at 50 µM (LpxC [3]) [%] | inhibition at 50 µM (LpxC [4]) [%]
1 | O=c1ccn([C@@H]2O[C@H](CON=Cc3ccc(O)c(O)c3O)[C@@H](O)[C@H]2O)c(=O)[nH]1 [1-68A] | 21 | – | – | –
2 | O=c1ccn([C@@H]2O[C@H](CON=Cc3ccc(O)c(O)c3)[C@@H](O)[C@H]2O)c(=O)[nH]1 [1-68Aa, 3,4-Dihydroxy-benzaldehyde O-[5-(2,4-dioxo-3,4-dihydro-2H-pyrimidin-1-yl)-3,4-dihydroxy-tetrahydro-furan-2-ylmethyl]-oxime] | – | 60 | 49 | 41
